Experiment [1] addresses T1, c-Met kinase domain recombinant protein (Homo sapiens, UniProt P08581).
T1 construct: 50 μL diluted solution of c-Met kinase domain recombinant protein in reaction buffer was added to initiate the reaction
Put plainly: biochemical. Particulars: for inhibition at 0.1 µM: read-out: Average inhibition rate at 0.1 μM (%); for inhibition at 1 µM: read-out: Average inhibition rate at 1 μM (%); for inhibition at 10 µM: read-out: Average inhibition rate at 10 μM (%). In short, it runs like this: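 ELISA on plates coated with Poly(Glu,Tyr)4:1 (20 μg/mL coating solution). Recombinant c-Met kinase domain reacted with 5 μM ATP in HEPES pH 7.4 with Mg/Mn, vanadate and DTT for 1 hour at 37° C. Phosphotyrosine was detected with PY99 and HRP secondary antibody, read at 490 nm, and IC50 was taken from a four-parameter fit.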

Experiment [2] concerns BaF3/TPR-Met cell. Put plainly: Test III: growth inhibition of engineered BaF3/TPR-Met cells (MTT). The class given is cell-based. Conditions: for inhibition at 0.2 µM / inhibition at 1 µM: Mus musculus; for inhibition at 0.2 µM: read-out: Cell proliferation inhibition rate at 200 nM (%); for inhibition at 1 µM: read-out: Cell proliferation inhibition rate at 1 μM (%). As to the method:
Assays on the growth inhibition of the compounds against engineered BaF3/TPR-Met cell (engineered cell line having TPR-Met fusion protein stably expressed in cytoplasm, persistently activated, Met dependent sensitive cell line; BaF3 cell was purchased from DSMZ, German) were detected using microculture tetrozolium (MTT) staining. A certain amount of BaF3/TPR-Met cells at log phase were inoculated into 96-well culture plate at 90 µL per well, incubated overnight and then 10 μL compound at various concentrations or vehicle control (normal saline) was added, each concentration was tested in triplicate. After incubation with compound for 72 hours, the incubation was terminated, MTT solution (5 mg/mL) was added at 20 μL per well, incubated at 37° C. for 4 hours, then 100 μL triplet solution (10% SDS−5% isobutanol−0.01M HCl) was added, incubated overnight at 37° C., OD value was measured at 570 nm. […] Experiments were conducted in duplicates.

For experiment [3], the target named is T1, c-Met kinase domain recombinant protein. The experiment can be described thus: biochemical. Particulars: for inhibition at 10 µM: read-out: Inhibition rate at 10 μM (%). In short, it runs like this:
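ELISA on plates coated with Poly(Glu,Tyr)4:1 (20 μg/mL), kinase reaction with c-Met kinase domain and ATP in HEPES pH 7.4 buffer with MgCl2, MnCl2, Na3VO4 and DTT, 1 h at 37 °C. Phosphotyrosine detected with PY99 and HRP secondary antibody, read at 490 nm; inhibition rate calculated against ATP-free control.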

The values that follow come from patent US9988381B2, “Five-member-heterocycle fused pyridine compounds, method of producing the same, and use thereof” (SHANGHAI INSTITUTE OF MATERIA MEDICA, CHINESE ACADEMY OF …, priority 2013, dated 2018).

As a reminder, the IC50 is the concentration at which inhibition is half-maximal.

Where two headings read alike, the source gives them in different places.

T1 sequence (P08581 1078-1345 limits assumed): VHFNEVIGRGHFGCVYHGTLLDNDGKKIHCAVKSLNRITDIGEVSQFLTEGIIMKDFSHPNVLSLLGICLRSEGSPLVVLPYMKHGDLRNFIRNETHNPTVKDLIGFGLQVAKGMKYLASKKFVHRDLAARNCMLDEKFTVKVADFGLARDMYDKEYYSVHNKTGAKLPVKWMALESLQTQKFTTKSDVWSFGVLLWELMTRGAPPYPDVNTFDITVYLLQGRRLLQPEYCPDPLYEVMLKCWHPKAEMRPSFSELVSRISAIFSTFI

Take `CC(C)(C)OC(=O)N1CCC(n2cc(-c3cnc4cnn(S(=O)(=O)c5cnc6ccccn56)c4c3)cn2)CC1` [Example 44, 1-(imidazo[1,2-a]pyridine-3-sulfonyl)-6-{{1-[(1-t-butoxycarbonyl)-4-piperidinyl]}-4-pyrazolyl}-1-H-pyrazolo[4,3-b]pyridine]: in experiment [1], the IC50 was found to be 6.9 ± 1.9 nM, the inhibition at 0.1 µM was 74.6%, the inhibition at 1 µM is 78.6% and the inhibition at 10 µM turned out to be 87.5%. Moreover, in experiment [2] (BaF3, 72 h), the inhibition at 0.2 µM came out at 95% and the inhibition at 1 µM is 95.8%. In experiment [3], the inhibition at 10 µM is 87.5%.
With `O=S(=O)(c1cnc2ccccn12)n1ncc2ncc(-c3cnn(C4CCNCC4)c3)cc21` [Example 45, 1-(imidazo[1,2-a]pyridine-3-sulfonyl)-6-{[1-(4-piperidinyl)]-4-pyrazolyl}-1-H-pyrazolo[4,3-b]pyridine], in experiment [1], the IC50 was 2.9 ± 0.6 nM, the inhibition at 0.1 µM was determined as 73.4%, the inhibition at 1 µM was determined as 76.5% and the inhibition at 10 µM is 89.6%. For the same compound, in experiment [2] (BaF3, 72 h), the inhibition at 0.2 µM came to 27.9% and the inhibition at 1 µM was found to be 95.9%. For the same compound, the inhibition at 10 µM in experiment [3] was 89.6%.
As for `CC(C)(C)OC(=O)N1CCC(n2cc(-c3cnc4cnn(S(=O)(=O)c5cnn6cccnc56)c4c3)cn2)CC1` [Example 46, 1-(pyrazolo[1,5-a]pyrimidine-3-sulfonyl)-6-{{1-[(1-t-butoxycarbonyl)-4-piperidinyl]}-4-pyrazolyl}-1-H-pyrazolo[4,3-b]pyridine], in experiment [1], the inhibition at 0.1 µM is 55.9%, the inhibition at 1 µM came out at 65% and the inhibition at 10 µM turned out to be 81.3%. In experiment [2] (BaF3/TPR-Met, 200 nM, 72 hours), the inhibition at 0.2 µM came out at 33.7%. In addition, the inhibition at 1 µM in experiment [2] (BaF3/TPR-Met, 1 μM, 72 hours) came out at 68%. For the same compound, the inhibition at 10 µM in experiment [3] was found to be 81.3%.
Turning to `CC(C)(C)OC(=O)N1CCC(n2cc(-c3cnc4cnn(S(=O)(=O)c5cnc6cccnn56)c4c3)cn2)CC1` [Example 49, 1-(imidazo[1,2-b]pyridazine-3-sulfonyl)-6-{{1-[(1-t-butoxycarbonyl)-4-piperidinyl]}-4-pyrazolyl}-1-H-pyrazolo[4,3-b]pyridine], in experiment [1], the inhibition at 0.1 µM worked out at 71%, the inhibition at 1 µM came out at 74.5% and the inhibition at 10 µM was 76.7%. Moreover, the inhibition at 0.2 µM in experiment [2] (BaF3/TPR-Met, 200 nM, 72 hours) was found to be 28.4%. Besides, the inhibition at 1 µM in experiment [2] (BaF3/TPR-Met, 1 μM, 72 hours) is 90.5%. For the same compound, the inhibition at 10 µM in experiment [3] is 76.7%.
In the case of `O=S(=O)(c1cnc2cccnn12)n1ncc2ncc(-c3cnn(C4CCNCC4)c3)cc21` [Example 51], in experiment [1], the inhibition at 0.1 µM stood at 64.6%, the inhibition at 1 µM is 66.7% and the inhibition at 10 µM amounted to 72.3%. Besides, the inhibition at 0.2 µM in experiment [2] (BaF3/TPR-Met, 200 nM, 72 hours) was found to be 15.3%. Moreover, the inhibition at 1 µM in experiment [2] (BaF3/TPR-Met, 1 μM, 72 hours) came out at 7.7%. Also, in experiment [3], the inhibition at 10 µM worked out at 72.3%.
Regarding `CCN1CCC(n2cc(-c3cnc4cnn(S(=O)(=O)c5cnc6ccccn56)c4c3)cn2)CC1` [Example 53, 1-(imidazo[1,2-a]pyridine-3-sulfonyl)-6-{{1-[(1-ethyl)-4-piperidinyl]}-4-pyrazolyl}-1-H-pyrazolo[4,3-b]pyridine], in experiment [1], the inhibition at 0.1 µM turned out to be 67.5%, the inhibition at 1 µM was determined as 68.4% and the inhibition at 10 µM was found to be 74.1%. In experiment [2] (BaF3/TPR-Met, 1 μM, 72 hours), the inhibition at 1 µM was 90.9%. Moreover, the inhibition at 10 µM in experiment [3] amounted to 65.7%.
In the case of `CC(=O)N1CCC(n2cc(-c3cnc4cnn(S(=O)(=O)c5cnc6ccccn56)c4c3)cn2)CC1` [Example 54, 1-(imidazo[1,2-a]pyridine-3-sulfonyl)-6-{{1-[(1-acetyl)-4-piperidinyl]}-4-pyrazolyl}-1-H-pyrazolo[4,3-b]pyridine], the inhibition at 0.1 µM in experiment [1] was 55.9%. Also, the inhibition at 1 µM in experiment [1] was 57.9%; in experiment [2] (BaF3/TPR-Met, 1 μM, 72 hours), 89.6%. For the same compound, the inhibition at 10 µM in experiment [1] worked out at 62.1%; in experiment [3], 70.7%. The inhibition at 0.2 µM in experiment [2] (BaF3/TPR-Met, 200 nM, 72 hours) worked out at 88.3%.
For the compound `O=C(C1CC1)N1CCC(n2cc(-c3cnc4cnn(S(=O)(=O)c5cnc6ccccn56)c4c3)cn2)CC1` [Example 55, 1-(imidazo[1,2-a]pyridine-3-sulfonyl)-6-{{1-[(1-cyclopropylcarbonyl)-4-piperidinyl]}-4-pyrazolyl}-1-H-pyrazolo[4,3-b]pyridine], in experiment [1], the IC50 stood at 1.3 ± 0.1 nM, the inhibition at 0.1 µM was 58.8%, the inhibition at 1 µM was 58.3% and the inhibition at 10 µM stood at 60.8%. Moreover, in experiment [2] (BaF3, 72 h), the inhibition at 0.2 µM is 89.3% and the inhibition at 1 µM was 89.8%. In addition, the inhibition at 10 µM in experiment [3] was 74.1%.
With `O=C(C1CCCC1)N1CCC(n2cc(-c3cnc4cnn(S(=O)(=O)c5cnc6ccccn56)c4c3)cn2)CC1` [Example 56, 1-(imidazo[1,2-a]pyridine-3-sulfonyl)-6-{{1-[(1-cyclopentylcarbonyl)-4-piperidinyl]}-4-pyrazolyl}-1-H-pyrazolo[4,3-b]pyridine], in experiment [1], the inhibition at 0.1 µM was determined as 53.3%, the inhibition at 1 µM was 56.3% and the inhibition at 10 µM turned out to be 58.9%. Besides, the inhibition at 0.2 µM in experiment [2] (BaF3/TPR-Met, 200 nM, 72 hours) was determined as 79.1%. Moreover, in experiment [2] (BaF3/TPR-Met, 1 μM, 72 hours), the inhibition at 1 µM worked out at 90.6%. Further, the inhibition at 10 µM in experiment [3] worked out at 62.1%.
For `O=C(C1CCCCC1)N1CCC(n2cc(-c3cnc4cnn(S(=O)(=O)c5cnc6ccccn56)c4c3)cn2)CC1` [Example 57, 1-(imidazo[1,2-a]pyridine-3-sulfonyl)-6-{{1-[(1-cyclohexylcarbonyl)-4-piperidinyl]}-4-pyrazolyl}-1-H-pyrazolo[4,3-b]pyridine], in experiment [1], the inhibition at 0.1 µM turned out to be 52.4%, the inhibition at 1 µM was 54.5% and the inhibition at 10 µM turned out to be 60.3%. Moreover, the inhibition at 0.2 µM in experiment [2] (BaF3/TPR-Met, 200 nM, 72 hours) turned out to be 86.8%. The inhibition at 1 µM in experiment [2] (BaF3/TPR-Met, 1 μM, 72 hours) turned out to be 89.5%. In addition, the inhibition at 10 µM in experiment [3] came out at 60.8%.
Take `CC(C)N1CCC(n2cc(-c3cnc4cnn(S(=O)(=O)c5cnc6ccccn56)c4c3)cn2)CC1` [Example 59, 1-(imidazo[1,2-a]pyridine-3-sulfonyl)-6-{{1-[(1-isopropyl)-4-piperidinyl]}-4-pyrazolyl}-1-H-pyrazolo[4,3-b]pyridine]: in experiment [1], the inhibition at 0.1 µM amounted to 51.6%, the inhibition at 1 µM was 51.9% and the inhibition at 10 µM was determined as 59.8%. The inhibition at 0.2 µM in experiment [2] (BaF3/TPR-Met, 200 nM, 72 hours) was 70.6%. Further, the inhibition at 1 µM in experiment [2] (BaF3/TPR-Met, 1 μM, 72 hours) was determined as 89.8%. The inhibition at 10 µM in experiment [3] is 60.3%.
Regarding `O=S(=O)(c1cnc2ccccn12)n1ncc2ncc(-c3cnn(C4CCN(C5CCCC5)CC4)c3)cc21` [Example 60, 1-(imidazo[1,2-a]pyridine-3-sulfonyl)-6-{{1-[(1-cyclopentyl)-4-piperidinyl]}-4-pyrazolyl}-1-H-pyrazolo[4,3-b]pyridine], in experiment [1], the inhibition at 0.1 µM came to 50.1%, the inhibition at 1 µM is 53.4% and the inhibition at 10 µM is 62.6%. For the same compound, the inhibition at 0.2 µM in experiment [2] (BaF3/TPR-Met, 200 nM, 72 hours) came to 84.8%. In addition, the inhibition at 1 µM in experiment [2] (BaF3/TPR-Met, 1 μM, 72 hours) is 89.4%. The inhibition at 10 µM in experiment [3] came out at 57.4%.
`CC(C)(C)OC(=O)N1CCC(n2cc(-c3cnc4cnn(S(=O)(=O)c5cnc6ccc(Cl)nn56)c4c3)cn2)CC1` [Example 61]: the inhibition at 0.1 µM in experiment [1] stood at 73.7%. The inhibition at 1 µM amounted to 76% in experiment [1] and 91.7% in experiment [2] (BaF3/TPR-Met, 1 μM, 72 hours). Further, the inhibition at 10 µM amounted to 83.2% in experiment [1] and 59.8% in experiment [3]. The inhibition at 0.2 µM in experiment [2] (BaF3/TPR-Met, 200 nM, 72 hours) stood at 83.1%.
Turning to `CC(C)(C)OC(=O)N1CCC(n2cc(-c3cnc4cnn(S(=O)(=O)c5cnc6ccc(C(F)(F)F)cn56)c4c3)cn2)CC1` [Example 63], in experiment [1], the inhibition at 0.1 µM was found to be 59%, the inhibition at 1 µM was found to be 60.4% and the inhibition at 10 µM was found to be 63%. The inhibition at 1 µM in experiment [2] (BaF3/TPR-Met, 1 μM, 72 hours) stood at 66.5%. In addition, the inhibition at 10 µM in experiment [3] was 83.2%.
In the case of `Cl.O=S(=O)(c1cnc2ccccn12)n1ncc2ncc(-c3cnn(C4CCNCC4)c3)cc21` [Example 66, 1-(imidazo[1,2-a]pyridine-3-sulfonyl)-6-{[1-(4-piperidinyl)]-4-pyrazolyl}-1-H-pyrazolo[4,3-b]pyridine chloride], the “Average inhibition rate at 0.1 μM (%)” value in experiment [1] (compound 0.1 μM) was determined as 73.3%. For the same compound, the “Average inhibition rate at 1 μM (%)” value in experiment [1] (compound 1 μM) worked out at 75.8%. Further, the “Average inhibition rate at 10 μM (%)” value in experiment [1] (compound 10 μM, Table 2) amounted to 79.9%. Also, in experiment [2] (BaF3/TPR-Met, 1 μM, 72 hours), the “Cell proliferation inhibition rate at 1 μM (%)” value stood at 92.7%. Moreover, the “Inhibition rate at 10 μM (%)” value in experiment [3] (compound 10 μM, Table 1) was 63%.
In the case of `CC(C)(C)OC(=O)N1CCC(n2cc(-c3cnc4cnn(S(=O)(=O)c5cnc6ccc(Cl)cn56)c4c3)cn2)CC1` [Example 67], the inhibition at 0.1 µM in experiment [1] came to 63.1%. In addition, the inhibition at 1 µM in experiment [1] was found to be 64.6%; in experiment [2] (BaF3/TPR-Met, 1 μM, 72 hours) it was 91.6%. Also, the inhibition at 10 µM in experiment [1] stood at 68.2%; in experiment [3], 66%. The inhibition at 0.2 µM in experiment [2] (BaF3/TPR-Met, 200 nM, 72 hours) is 90.3%.
